Measurements from patent US8163793B2, “Proline derivatives” (Hoffman-La Roche Inc., priority 2009, dated 2012).
pIC50: −log10 of the molar value. Where a name gives a salt, the structure may show the parent alone.

Key:
Cathepsin S = Cathepsin S (UniProt P25774); assay: Cathepsin enzyme inhibition assay (fluorogenic peptide substrate Z-Val-Val-Arg-AMC), Cathepsin S; format: biochemical, human and mouse; conditions: enzyme 1 nM, substrate 20 μM, pH 6.5; read-out: CatS IC50
Method in brief: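 Human or mouse cathepsin S (1 nM) was run in 100 mM potassium phosphate pH 6.5 with 5 mM EDTA, 0.001% Triton X-100 and 5 mM DTT. The rise in AMC fluorescence from cleavage was measured, and IC50 values were calculated by standard methods and expressed in μM.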

Cat L = Cat L (UniProt P07711); assay: Cathepsin enzyme inhibition assay (fluorogenic peptide substrate Z-Val-Val-Arg-AMC), Cathepsin L; format: biochemical, human and mouse; conditions: enzyme 1 nM, substrate 20 μM, pH 6.5; read-out: CatL IC50
Method in brief: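 Cathepsin L at 1 nM was mixed with compound, then started with 20 μM Z-Val-Val-Arg-AMC in pH 6.5 potassium phosphate with EDTA, Triton X-100 and 5 mM DTT. AMC fluorescence (ex 360/em 465 nm) was followed over 20 min. IC50 is given in μM.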

Structure (SMILES)	pIC50 (Cathepsin S)	pIC50 (Cat L)
CC1(C(=O)N2C[C@H](S(=O)(=O)c3ccc(F)cc3C(F)(F)F)C[C@H]2C(=O)NC2(C#N)CC2)CC1 [Example 344, (2S,4R)-4-(4-Fluoro-2-trifluoromethyl-benzenesulfonyl)-1-(1-methyl-cyclopropanecarbonyl)-pyrrolidine-2-carboxylic acid (1-cyano-cyclopropyl)-amide]	9.27	≤ 4.60
CCC(=O)N1C[C@H](S(=O)(=O)c2ccccc2Cl)C[C@H]1C(=O)NCC#N [Example 61, (2S,4R)-4-(2-Chloro-benzenesulfonyl)-1-propionyl-pyrrolidine-2-carboxylic acid cyanomethyl-amide]	8.92	4.65
CC1(C(=O)N2C[C@H](S(=O)(=O)c3ccc(C4CC4)cc3C(F)(F)F)C[C@H]2C(=O)NC2(C#N)CC2)CC1 [Example 271, (2S,4R)-4-(4-Cyclopropyl-2-trifluoromethyl-benzenesulfonyl)-1-(1-methyl-cyclopropanecarbonyl)-pyrrolidine-2-carboxylic acid (1-cyano-cyclopropyl)-amide]	8.76	4.07
N#CC1(NC(=O)[C@@H]2C[C@@H](S(=O)(=O)c3ccc(Cl)cc3Cl)CN2C(=O)CC(F)(F)F)CC1 [Example 227, (2S,4R)-4-(2,4-Dichloro-benzenesulfonyl)-1-(3,3,3-trifluoro-propionyl)-pyrrolidine-2-carboxylic acid (1-cyano-cyclopropyl)-amide]	9.22	4.81
CC1(C(=O)N2C[C@H](S(=O)(=O)c3ccc(Cl)cc3Cl)C[C@H]2C(=O)NC2(C#N)CC2)CC1 [Example 222, (2S,4R)-4-(2,4-Dichloro-benzenesulfonyl)-1-(1-methyl-cyclopropanecarbonyl)-pyrrolidine-2-carboxylic acid (1-cyano-cyclopropyl)-amide]	8.92	4.73
Cc1nccn1-c1ccc(S(=O)(=O)[C@H]2CN[C@H](C(=O)NC3(C#N)CC3)C2)c(C(F)(F)F)c1 [Example 24, (2S,4R)-4-[4-(2-M ethyl-imidazol-1-yl)-2-trifluoromethyl-benzenesulfonyl]-pyrrolidine-2-carboxylic acid (1-cyano-cyclopropyl)-amide hydrochloride]	8.59	≤ 4.60
N#CC1(NC(=O)[C@H]2C[C@@H](S(=O)(=O)c3ccc(Cl)cc3Cl)CN2c2ncccc2C(F)(F)F)CC1 [Example 189, (2R,4R)-4-(2,4-Dichloro-benzenesulfonyl)-1-(3-trifluoromethyl-pyridin-2-yl)-pyrrolidine-2-carboxylic acid (1-cyano-cyclopropyl)-amide]	6.18	≤ 4.60
N#CC1(NC(=O)[C@@H]2C[C@@H](S(=O)(=O)c3ccccc3C(F)(F)F)CN2Cc2ccccc2)CC1 [Example 107, (2S,4R)-1-Benzyl-4-(2-trifluoromethyl-benzenesulfonyl)-pyrrolidine-2-carboxylic acid (1-cyano-cyclopropyl)-amide]	7.60	4.78
CC(C)(C#N)NC(=O)[C@@H]1C[C@@H](S(=O)(=O)c2ccccc2Cl)CN1 [Example 44, (2S,4R)-4-(2-Chloro-benzenesulfonyl)-pyrrolidine-2-carboxylic acid (cyano-dimethyl-methyl)-amide Hydrochloride]	6.82	≤ 4.60
N#CC1(NC(=O)[C@@H]2C[C@@H](S(=O)(=O)c3ccc(N4CCCCC4)cc3Cl)CN2C=O)CC1 [Example 146, (2S,4R)-4-(2-Chloro-4-piperidin-1-yl-benzenesulfonyl)-1-formyl-pyrrolidine-2-carboxylic acid (1-cyano-cyclopropyl)-amide formiate]	8.19	4.59
N#CC1(NC(=O)[C@@H]2C[C@@H](S(=O)(=O)c3ccc(-n4ccncc4=O)cc3C(F)(F)F)CN2)CC1 [Example 32, (2S,4R)-4-[4-(2-Oxo-2H-pyrazin-1-yl)-2-trifluoromethyl-benzenesulfonyl]-pyrrolidine-2-carboxylic acid (1-cyano-cyclopropyl)-amide hydrochloride]	8.30	≤ 4.60
Cc1cc(N2C[C@H](S(=O)(=O)c3ccccc3C(F)(F)F)C[C@H]2C(=O)NC2(C#N)CC2)n(-c2cccnn2)n1 [Example 317, (2S,4R)-1-(5-Methyl-2-pyridazin-3-yl-2H-pyrazol-3-yl)-4-(2-trifluoromethyl-benzenesulfonyl)-pyrrolidine-2-carboxylic acid (1-cyano-cyclopropyl)-amide]	7.64	≤ 4.60
N#CCNC(=O)[C@@H]1C[C@@H](S(=O)(=O)c2ccccc2Cl)CN1C1CCOCC1 [Example 64, (2S,4R)-4-(2-Chloro-benzenesulfonyl)-1-(tetrahydro-pyran-4-yl)-pyrrolidine-2-carboxylic acid cyanomethyl-amide]	6.96	≤ 4.60

More lines, now with the values ahead:

pIC50 (Cathepsin S)	pIC50 (Cat L)	Structure (SMILES)
7.80	≤ 4.60	N#CC1(NC(=O)[C@@H]2C[C@@H](S(=O)(=O)c3ccc(-n4cccn4)cc3Cl)CN2C=O)CC1 [Example 148, (2S,4R)-4-(2-Chloro-4-pyrazol-1-yl-benzenesulfonyl)-1-formyl-pyrrolidine-2-carboxylic acid (1-cyano-cyclopropyl)-amide]
9.85	6.35	N#CC1(NC(=O)[C@@H]2C[C@@H](S(=O)(=O)c3ccc(OCC(F)(F)F)cc3Cl)CN2C(=O)C2(c3ccc(C(N)=O)cc3)CC2)CC1 [Example 277, (2S,4R)-1-[1-(4-Carbamoyl-phenyl)-cyclopropanecarbonyl]-4-[2-chloro-4-(2,2,2-trifluoro-ethoxy)-benzenesulfonyl]-pyrrolidine-2-carboxylic acid (1-cyano-cyclopropyl)-amide]
7.41	≤ 4.60	CC(C)(C)OC(=O)N1C[C@H](S(=O)(=O)c2ccc(F)cc2F)C[C@H]1C(=O)NC1(C#N)CC1 [Example 6, (2S,4R)-2-(1-Cyano-cyclopropylcarbamoyl)-4-(2,4-difluoro-benzenesulfonyl)-pyrrolidine-1-carboxylic acid tert-butyl ester]
4.98	≤ 4.60	Cc1cc(N2C[C@H](S(C)(=O)=O)C[C@H]2C(=O)NC2(C#N)CC2)n(Cc2ccccc2)n1 [Example 449, (2S,4R)-1-(2-Benzyl-5-methyl-2H-pyrazol-3-yl)-4-methanesulfonyl-pyrrolidine-2-carboxylic Acid (1-cyano-cyclopropyl)-amide]
6.43	≤ 4.60	Cc1cc(N2C[C@H](S(=O)(=O)c3ccccc3C(F)(F)F)C[C@@H]2C(=O)NC2(C#N)CC2)n(CCc2ccccc2)n1 [Example 338, (2R,4R)-1-(5-Methyl-2-phenethyl-2H-pyrazol-3-yl)-4-(2-trifluoromethyl-benzenesulfonyl)-pyrrolidine-2-carboxylic acid (1-cyano-cyclopropyl)-amide]
8.96	4.80	N#CC1(NC(=O)[C@@H]2C[C@@H](S(=O)(=O)c3ccccc3Cl)CN2C(=O)OC2CCCC2)CC1 [Example 98, (2S,4R)-4-(2-Chloro-benzenesulfonyl)-2-(1-cyano-cyclopropylcarbamoyl)-pyrrolidine-1-carboxylic acid Cyclopentyl Ester]
8.62	≤ 4.60	CC(C)(C)OC(=O)N1C[C@H](S(=O)(=O)c2ccc(N3CCC(F)(F)C3)cc2Cl)C[C@H]1C(=O)NC1(C#N)CC1 [Example 130, (2S,4R)-4-[2-Chloro-4-(3,3-difluoro-pyrrolidin-1-yl)-benzenesulfonyl]-2-(1-cyano-cyclopropylcarbamoyl)-pyrrolidine-1-carboxylic acid tert.-butyl ester]
8.76	≤ 4.60	N#CC1(NC(=O)[C@@H]2C[C@@H](S(=O)(=O)c3ccc(OCC(F)(F)F)cc3Cl)CN2C(=O)Oc2ccc(Cl)cc2)CC1 [Example 252, (2S,4R)-4-[2-Chloro-4-(2,2,2-trifluoro-ethoxy)-benzenesulfonyl]-2-(1-cyano-cyclopropylcarbamoyl)-pyrrolidine-1-carboxylic acid 4-chloro-phenyl ester]
5.58	≤ 4.60	N#CC1(NC(=O)[C@@H]2C[C@H](S(=O)(=O)c3ccccc3C(F)(F)F)CN2)CC1 [Example 159, (2S,4S)-4-(2-Trifluoromethyl-benzenesulfonyl)-pyrrolidine-2-carboxylic acid (1-cyano-cyclopropyl)-amide]
9.61	4.78	CN1CCN(c2ccc(S(=O)(=O)[C@@H]3C[C@@H](C(=O)NC4(C#N)CC4)N(C(=O)C4(C(F)(F)F)CC4)C3)c(C(F)(F)F)c2)CC1 [Example 260, (2S,4R)-4-[4-(4-Methyl-piperazin-1-yl)-2-trifluoromethyl-benzenesulfonyl]-1-(1-trifluoromethyl-cyclopropanecarbonyl)-pyrrolidine-2-carboxylic acid (1-cyano-cyclopropyl)-amide]
6.11	≤ 4.60	COc1cccc(-n2nc(C)cc2N2C[C@H](S(=O)(=O)c3ccccc3C(F)(F)F)C[C@@H]2C(=O)NC2(C#N)CC2)c1 [Example 334, (2R,4R)-1-[2-(3-Methoxy-phenyl)-5-methyl-2H-pyrazol-3-yl]-4-(2-trifluoromethyl-benzenesulfonyl)-pyrrolidine-2-carboxylic acid (1-cyano-cyclopropyl)-amide]
10.52	6.24	N#CC1(NC(=O)[C@@H]2C[C@@H](S(=O)(=O)c3ccc(OCC(F)(F)F)cc3Cl)CN2C(=O)C2(c3ccc(Cl)cc3)CCCC2)CC1 [Example 302, (2S,4R)-1-[1-(4-Chloro-phenyl)-cyclopentanecarbonyl]-4-[2-chloro-4-(2,2,2-trifluoro-ethoxy)-benzenesulfonyl]-pyrrolidine-2-carboxylic acid (1-cyano-cyclopropyl)-amide]
